The values that follow come from patent publication US7390642B2, “Salutaridinol 7-O-acetyltransferase and derivatives thereof” (priority 2001, dated 2008).

For orientation: Km means the substrate concentration at which the rate is half of its maximum. As usually defined, the Vmax is the rate approached at saturating substrate. Usually inhibition stands for how much of the control response was suppressed. A lower inhibition goes with little suppression.

Data set [1] addresses T1, salutaridinol 7-O-acetyltransferase (Papaver somniferum, UniProt Q94FT4).
The test system of data set [2] is COC1=C[C@]23CCN(C)[C@H](Cc4ccc(OC)c(O)c42)C3=C[C@@H]1O. The experiment in a line: purified protein, by the assay type. Particulars: other: fixed concentration of acetyl CoA of 30 mm; recombinant enzyme.
Data set [3] deals with CC(=O)SCCNC(=O)CCNC(=O)[C@H](O)C(C)(C)COP(=O)(O)OP(=O)(O)OC[C@H]1O[C@@H](n2cnc3c(N)ncnc32)[C@H](O)[C@@H]1OP(=O)(O)O. As to the kind of experiment: purified protein, by the assay type.
Data set [4] concerns the target T1, salutaridinol 7-O-acetyltransferase. The experiment in a line: Inhibition of enzyme activity by covalent modification with diethylpyrocarbonate. The arrangement: The full-length cDNA generated by RT-PCR was ligated into pFastBac HTa; His tag (N); made in house; host or cells: Spodoptera frugiperda Sf9 cells (baculovirus, pFastBac HTa); purified from culture medium. It is filed as biochemical, P. somniferum. From the text: Sequence Analysis of pSalAT: Translation of the complete nucleotide sequence of salAT yielded a polypeptide of 474 amino acids containing no apparent signal peptide. This is consistent with the cytosolic localization of the enzyme activity (6). The enzyme activity is also operationally found associated with the cytosolic fraction of exuded latex. The salAT amino acid sequence contains residues conserved in other plant acetyltransferases as indicated by the black boxes in FIG. 2 (SEQ. IDs No.7 to 12). The longest contiguous region of conserved amino acids are the five residues DFGWG near the carboxy terminus that were used for primer design and are indicated by an arrow. Conserved histidine and aspartate residues (HXXXD; denoted by # in FIG. 2) thought to be involved in catalysis as characterized by x-ray crystallography for the bacterial enzymes chloramphenicol acetyltransferase and dihydrolipoamide acetyltransferase are also present in salutaridinol 7-O-acetyltransferase (23,24).

Where [5] appears, read: standard assay conditions, acetylation of salutaridinol.

Where two headings read alike, the source gives them in different places.

For `COC1=C[C@]23CCN(C)[C@H](Cc4ccc(OC)c(O)c42)C3=C[C@@H]1O` [7(R)-salutaridinol], the “acetylation at C-7 by the recombinant enzyme (substrate acceptance)” value (“acetylation” below) in data set [1] (recombinant enzyme, acetyl CoA) is “not”.
Take “salutaridinol 7-O-acetyltransferase (Papaver somniferum)”: the Km came out at 9 µM in data set [2]; 106 µM in data set [3] (other: at 10 mM nudaurine); 54 µM in data set [3] (other: fixed concentration of salutaridinol of 10 mM, recombinant enzyme). In data set [2], the Vmax was 25 pmol/s.
Turning to `CCOC(=O)OC(=O)OCC` [DEPC, diethylpyrocarbonate], in data set [4], the “effect of carbethoxylation of histidine residues on enzyme activity” value is “loss of enzyme activity”. In data set [4] (3 mM DEPC), the inhibition at 3000 µM amounted to 50%. In data set [4] (5 mM DEPC), this molecule had an inhibition at 5000 µM of 92%. The inactivation of enzyme in data set [4] (5 mM DEPC after preincubation of the enzyme with 30 mM acetyl CoA) is 46%.
Regarding `[3H]C1(O)C=C2C3Cc4ccc(OC)c(O)c4C2(C=C1OC)CCN3C` (centres unmarked) [[7-^3H]salutaridinol], in data set [1] (radioassay of pure, recombinant enzyme), the “conversion into a product that co-migrated during TLC with authentic thebaine standard” value is 100%.
Regarding `CC[C@]12C=CCN3CC[C@@]4(c5ccc(OC)cc5N(C)[C@H]4[C@@](O)(C(=O)OC)[C@@H]1O)[C@@H]32` [deacetylvindoline], the “acetylation” value in data set [1] (recombinant enzyme, acetyl CoA) is on record as “not”.
Same read-out and setting: to `COC1=C[C@]23CCN(C)[C@H](Cc4ccc(OC)c(O)c42)C3=CC1=O` [salutaridine] belongs “not”.
In the case of `CN1CC[C@]23c4c5ccc(O)c4O[C@H]2[C@@H](O)C=C[C@H]3[C@H]1C5` [morphine], the “acetylation” value in data set [1] is listed as “not”.
Consider `COC1=C[C@]23CCN(C)[C@H](Cc4ccc(OC)c(O)c42)C3=C[C@@H]1O` [salutaridinol, 7(S)-salutaridinol], for which, in data set [1] (preference of salutaridinol over nudaurine, factor), the “ratio kcat/Km (salutaridinol):kcat/Km(nudaurine)” value came to 3.3. For the same molecule, in data set [1] (recombinant enzyme, acetyl CoA, listed as 7(S)-salutaridinol), the “acetylation” value is recorded as “acetylated”.
Regarding `COC1=C[C@]23CCN(C)[C@H](Cc4cc5c(cc42)OCO5)C3=C[C@@H]1O` [nudaurine], the “Vmax (nudaurine)” value in data set [1] (nudaurine as substrate) came to 19 pmol/s. For the same molecule, in data set [1] (read-out: apparent Km nudaurine, at 30 mM acetyl CoA), the Km is 23 µM. Further, in data set [1] (recombinant enzyme, acetyl CoA), the “acetylation” value is reported as “acetylated”.

B1: recombinant enzyme: P. somniferum salutaridinol 7-O-acetyltransferase, SEQ. ID No. 14, 474 amino acids (protein, listed as Papaver somniferum)
chain: MATMYSAAVEVISKETIKPTTPTPSQLKNFNLSLLDQCFPLYYYVPIILFYPATAANSTGSSNHHDDLDLLKSSLSKTLVHFYPMAGRMIDNILVDCHDQGINFYKVKIRGKMCEFMSQPDVPLSQLLPSEVVSASVPKEALVIVQVNMFDCGGTAICSSVSHKIADAATMSTFIRSWASTTKTSRSGGSTAAVTDQKLIPSFDSASLFPPSERLTSPSGMSEIPFSSTPEDTEDDKTVSKRFVFDFAKITSVREKLQVLMHDNYKSRRQTRVEVVTSLIWKSVMKSTPAGFLPVVHHAVNLRKKMDPPLQDVSFGNLSVTVSAFLPATTTTTTNAVNKTINSTSSESQVVLHELHDFIAQMRSEIDKVKGDKGSLEKVIQNFASGHDASIKKINDVEVINFWISSWCRMGLYEIDFGWGKPIWVTVDPNIKPNKNCFFMNDTKCGEGIEVWASFLEDDMAKFELHLSEILELI
In the case of B1, in data set [1] (setting [5]), the pH optimal range is 7-9 and the temperature optimum is 47 °C.
